Laboratory results as given in ChEMBL document CHEMBL1201862, “PubChem BioAssay data set” (2004).
Activity calls are given as the source filed them.

Tests used:
Hexokinase-1 [1] = biological target: T1, Hexokinase-1 (Homo sapiens, UniProt P19367); experiment: SAR analysis of small molecule inhibitors of hexokinase domain containing I (HKDC1) in the hexokinase 1 selectivity assay. [Related pubchem assays (depositor defined):AID493160, AID493190]; format: functional
T1 sequence (P19367 whole entry): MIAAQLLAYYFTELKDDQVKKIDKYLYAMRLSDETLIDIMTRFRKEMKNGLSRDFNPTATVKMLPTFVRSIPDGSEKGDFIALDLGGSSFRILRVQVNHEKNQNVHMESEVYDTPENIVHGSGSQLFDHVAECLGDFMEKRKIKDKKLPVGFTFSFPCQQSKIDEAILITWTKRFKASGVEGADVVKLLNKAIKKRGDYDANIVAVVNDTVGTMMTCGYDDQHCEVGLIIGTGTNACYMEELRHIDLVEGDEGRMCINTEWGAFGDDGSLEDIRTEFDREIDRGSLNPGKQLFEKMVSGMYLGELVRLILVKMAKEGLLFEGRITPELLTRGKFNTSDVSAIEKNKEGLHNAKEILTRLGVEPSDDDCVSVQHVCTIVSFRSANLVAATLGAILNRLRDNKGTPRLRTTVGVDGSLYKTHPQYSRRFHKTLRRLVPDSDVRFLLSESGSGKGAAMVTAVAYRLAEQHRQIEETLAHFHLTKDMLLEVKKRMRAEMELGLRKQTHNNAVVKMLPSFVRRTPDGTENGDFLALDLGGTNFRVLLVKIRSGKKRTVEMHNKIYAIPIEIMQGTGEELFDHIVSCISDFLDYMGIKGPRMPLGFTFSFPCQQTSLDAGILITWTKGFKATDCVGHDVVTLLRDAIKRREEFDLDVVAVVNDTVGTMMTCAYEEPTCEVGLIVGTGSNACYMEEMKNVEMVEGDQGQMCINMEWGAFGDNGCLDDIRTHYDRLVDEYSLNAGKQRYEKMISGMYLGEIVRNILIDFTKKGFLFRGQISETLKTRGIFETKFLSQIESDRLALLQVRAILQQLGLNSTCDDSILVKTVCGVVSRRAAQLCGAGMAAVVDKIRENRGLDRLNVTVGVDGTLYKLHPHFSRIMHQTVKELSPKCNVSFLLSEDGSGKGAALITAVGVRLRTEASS

Hexokinase HKDC1 [2] = biological target: T2, Hexokinase HKDC1 (Homo sapiens, UniProt Q2TB90); experiment: SAR analysis of small molecule inhibitors of hexokinase domain containing I (HKDC1). [Related pubchem assays (depositor defined):AID493160, AID493190]; format: functional
T2 sequence (Q2TB90 whole entry): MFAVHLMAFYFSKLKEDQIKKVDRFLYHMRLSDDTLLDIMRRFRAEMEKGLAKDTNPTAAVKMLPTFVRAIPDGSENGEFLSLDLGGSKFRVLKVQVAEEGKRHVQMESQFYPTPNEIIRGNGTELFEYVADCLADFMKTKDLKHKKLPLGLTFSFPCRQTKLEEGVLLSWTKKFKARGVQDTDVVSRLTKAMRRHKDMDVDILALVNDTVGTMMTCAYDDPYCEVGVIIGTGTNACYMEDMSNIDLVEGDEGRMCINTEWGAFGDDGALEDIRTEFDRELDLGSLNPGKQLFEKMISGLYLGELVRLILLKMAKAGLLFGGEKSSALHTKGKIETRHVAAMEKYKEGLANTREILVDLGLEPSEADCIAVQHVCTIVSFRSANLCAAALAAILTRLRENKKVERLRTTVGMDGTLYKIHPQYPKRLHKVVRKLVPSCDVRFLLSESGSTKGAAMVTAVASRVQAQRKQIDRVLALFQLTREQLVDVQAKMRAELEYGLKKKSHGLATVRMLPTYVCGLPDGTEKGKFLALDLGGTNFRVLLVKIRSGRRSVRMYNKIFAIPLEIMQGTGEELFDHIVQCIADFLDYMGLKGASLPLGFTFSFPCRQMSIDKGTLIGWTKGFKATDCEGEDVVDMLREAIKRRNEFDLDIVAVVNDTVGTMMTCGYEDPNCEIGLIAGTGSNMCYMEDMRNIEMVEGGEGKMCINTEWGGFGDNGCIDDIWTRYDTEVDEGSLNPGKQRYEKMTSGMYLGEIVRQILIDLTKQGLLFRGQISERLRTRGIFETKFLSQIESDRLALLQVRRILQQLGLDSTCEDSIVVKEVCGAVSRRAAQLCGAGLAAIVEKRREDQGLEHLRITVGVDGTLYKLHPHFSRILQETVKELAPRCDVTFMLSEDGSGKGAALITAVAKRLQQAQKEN

[3] = biological target: Glycogen synthase kinase-3 alpha (Homo sapiens, UniProt P49840); experiment: Inhibition of Human GSK-3 alpha Activity Measured in Biochemical System Using Microfluidics - 2063-06_Inhibitor_Dose_DryPowder_Activity. [Related pubchem assays (depositor defined):AID2709]
[4] = biological target: Glycogen synthase kinase-3 beta (Homo sapiens, UniProt P49841); experiment: Inhibition of Human GSK-3 beta Activity Measured in Biochemical System Using Microfluidics - 2063-05_Inhibitor_Dose_DryPowder_Activity. [Related pubchem assays (depositor defined):AID2709]
[5] = tested on: Streptococcus sp. 'group A'; experiment: growth inhibition of control SK(-) GAS strain, dose response, counter-screen for streptokinase expression inhibitor project, luminescence, kanamycin, BacTiterGlo, confirmation (AID 1900); format: functional, organism-based
Streptococcus = experiment: Group A Streptococcus viability loss, dose response, counter-screen for streptokinase expression inhibitor project, luminescence, BacTiterGlo (AID 1915); format: functional, organism-based;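 further: potency for reduction of bacterial viability or growth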
Escherichia coli = experiment: microbe, parasite or virus in culture
Hexokinase-1 [6] = biological target: T1, Hexokinase-1; experiment: HK1 enzyme inhibition by HKDC1 hits, SAR follow-up, selectivity assay for HKDC1 inhibitor project, biochemical, set 2, resazurin fluorescence coupled readout (AID 588356); format: functional
Hexokinase HKDC1 [7] = biological target: T2, Hexokinase HKDC1; experiment: HKDC1 hexokinase inhibitors, SAR follow-up, biochemical, set 2 (AID 588355); format: functional
[8] = Luminescent dose response cell-based high throughput screening assay for inhibitors of the Janus kinase 2 mutant JAK2V617F. [Related pubchem assays: 1446 (Primary screen.), 1521 (Confirmation assay.), 1486 (Counter screen.)]; format: functional
BJ [9] = experiment: cytotoxicity toward BJ-TERT fibroblasts, dose response, cell-based, RAS-independent, luminescence (AID 1933); format: functional; conditions: Homo sapiens
BJ [10] = experiment: cells; format: functional, cell-based; conditions: Homo sapiens
[11] = inhibitors of intracellular T. cruzi replication, confirmation, NIH3T3 host cells, beta-gal luminescence (AID 2044); format: functional, cell-based;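 further: intracellular parasites grown in NIH/3T3 mouse fibroblasts as host cells; luminescent beta-galactosidase reporter signal from transgenic T. cruzi replicating inside host cells; inhibitors lower the luminescence signal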
[12] = microbe, parasite or virus in culture; format: functional; conditions: Mycobacterium tuberculosis
[13] = cytotoxicity toward NIH3T3 fibroblasts, dose response, counter-screen, cell-based, ATP luminescence, mouse fibroblasts (AID 2010); format: functional;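 further: cells exposed to compound for about 90 hours before reading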
BJ [14] = experiment: cytotoxicity toward BJ-TERT-LT-ST fibroblasts, dose response, cell-based, RAS-independent, luminescence (AID 1935); format: functional; conditions: Homo sapiens;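 further: BJ fibroblasts immortalized with TERT plus LT and ST oncogenes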
[15] = cytotoxicity toward DRD oncogenic fibroblasts, dose response, cell-based, non-viral oncogenic, luminescence (AID 1934); format: functional; conditions: Homo sapiens
[16] = HeLa cell cytotoxicity, dose response, cytotoxicity control for MgcRacGAP inhibitor project (AID 624300); format: functional
[17] = biological target: T3, Rac GTPase-activating protein 1 (Homo sapiens, UniProt Q9H0H5); experiment: MgcRacGAP GTPase-activating activity inhibitors, confirmation, biochemical, ADP Hunter fluorescence, primary and confirmatory (AID 624330); format: functional
T3 sequence (Q9H0H5 whole entry): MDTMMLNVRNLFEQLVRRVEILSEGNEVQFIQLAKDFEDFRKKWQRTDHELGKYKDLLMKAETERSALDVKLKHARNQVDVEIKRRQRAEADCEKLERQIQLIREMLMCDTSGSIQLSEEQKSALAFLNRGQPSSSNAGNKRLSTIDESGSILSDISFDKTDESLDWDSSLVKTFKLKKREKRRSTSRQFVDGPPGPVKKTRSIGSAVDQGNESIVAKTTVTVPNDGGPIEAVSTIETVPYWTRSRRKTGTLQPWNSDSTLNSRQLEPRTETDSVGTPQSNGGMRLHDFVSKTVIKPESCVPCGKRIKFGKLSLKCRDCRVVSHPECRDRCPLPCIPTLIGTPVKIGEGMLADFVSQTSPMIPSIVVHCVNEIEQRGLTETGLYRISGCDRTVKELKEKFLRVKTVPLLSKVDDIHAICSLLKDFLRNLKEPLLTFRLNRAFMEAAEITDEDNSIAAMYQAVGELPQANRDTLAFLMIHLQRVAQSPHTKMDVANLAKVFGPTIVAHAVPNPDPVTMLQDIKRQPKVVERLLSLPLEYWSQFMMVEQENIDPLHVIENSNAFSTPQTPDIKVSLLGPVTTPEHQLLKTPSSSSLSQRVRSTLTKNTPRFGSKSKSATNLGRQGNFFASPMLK

[18] = biological target: T4, DNA repair protein RAD52 homolog (Homo sapiens, UniProt P43351); format: functional, biochemical
T4 sequence (P43351 whole entry): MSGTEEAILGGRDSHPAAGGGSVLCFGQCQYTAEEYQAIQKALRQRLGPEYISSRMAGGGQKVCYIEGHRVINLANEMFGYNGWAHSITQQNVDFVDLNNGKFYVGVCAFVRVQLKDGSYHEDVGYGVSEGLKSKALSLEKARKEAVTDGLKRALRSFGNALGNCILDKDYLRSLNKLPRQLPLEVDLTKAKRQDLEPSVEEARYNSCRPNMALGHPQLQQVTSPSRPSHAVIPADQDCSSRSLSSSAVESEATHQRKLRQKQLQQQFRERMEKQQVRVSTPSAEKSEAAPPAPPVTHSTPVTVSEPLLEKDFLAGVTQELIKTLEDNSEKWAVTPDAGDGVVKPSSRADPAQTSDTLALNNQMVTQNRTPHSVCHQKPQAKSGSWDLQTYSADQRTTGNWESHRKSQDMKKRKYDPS

HEK293 [19] = experiment: cells; conditions: Homo sapiens
HEK293 [20] = experiment: cells; conditions: Homo sapiens; remark: listed apart in the source
[21] = biological target: Voltage-gated inwardly rectifying potassium channel KCNH2 (Homo sapiens, UniProt Q12809); conditions: Potency;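 further: confirmatory quantitative high-throughput screen measuring inhibition of hERG channel activity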
HEK293 [22] = experiment: cells; format: functional, cell-based; conditions: Homo sapiens
[23] = biological target: T5, Nuclear receptor subfamily 0 group B member 1 (Homo sapiens, UniProt P51843); experiment: Luminescence-based cell-based high throughput dose response assay for inhibitors of the orphan nuclear receptor subfamily 0, group B, member 1 (DAX1; NR0B1). [Related pubchem assays (depositor defined):AID504766, AID504790]; format: functional
T5 sequence (P51843 whole entry): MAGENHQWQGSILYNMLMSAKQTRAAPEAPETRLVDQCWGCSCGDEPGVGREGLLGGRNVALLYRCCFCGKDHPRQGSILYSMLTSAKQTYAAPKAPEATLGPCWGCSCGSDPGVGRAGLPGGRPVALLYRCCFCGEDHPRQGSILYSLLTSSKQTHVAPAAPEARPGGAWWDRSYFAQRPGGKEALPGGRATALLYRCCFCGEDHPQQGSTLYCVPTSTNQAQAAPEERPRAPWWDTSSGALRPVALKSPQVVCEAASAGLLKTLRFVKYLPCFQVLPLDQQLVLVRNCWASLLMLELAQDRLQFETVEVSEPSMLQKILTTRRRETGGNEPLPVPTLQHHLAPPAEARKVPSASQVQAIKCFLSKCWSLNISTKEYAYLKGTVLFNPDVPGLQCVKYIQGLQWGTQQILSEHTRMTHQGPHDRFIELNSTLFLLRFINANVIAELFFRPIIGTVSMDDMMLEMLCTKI

Chain of Glycogen synthase kinase-3 beta (P49841 whole entry): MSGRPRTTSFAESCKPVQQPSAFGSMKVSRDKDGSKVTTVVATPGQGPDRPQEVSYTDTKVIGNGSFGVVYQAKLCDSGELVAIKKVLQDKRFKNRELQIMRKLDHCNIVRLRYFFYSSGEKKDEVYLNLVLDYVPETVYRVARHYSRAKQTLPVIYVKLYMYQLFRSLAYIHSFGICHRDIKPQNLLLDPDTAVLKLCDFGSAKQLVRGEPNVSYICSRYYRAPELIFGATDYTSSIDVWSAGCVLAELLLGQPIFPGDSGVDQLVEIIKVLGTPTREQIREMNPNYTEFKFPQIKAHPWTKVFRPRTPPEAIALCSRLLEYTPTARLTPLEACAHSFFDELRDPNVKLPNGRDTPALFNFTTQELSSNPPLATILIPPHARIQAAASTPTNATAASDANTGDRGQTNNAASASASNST
Chain of Glycogen synthase kinase-3 alpha (P49840 whole entry): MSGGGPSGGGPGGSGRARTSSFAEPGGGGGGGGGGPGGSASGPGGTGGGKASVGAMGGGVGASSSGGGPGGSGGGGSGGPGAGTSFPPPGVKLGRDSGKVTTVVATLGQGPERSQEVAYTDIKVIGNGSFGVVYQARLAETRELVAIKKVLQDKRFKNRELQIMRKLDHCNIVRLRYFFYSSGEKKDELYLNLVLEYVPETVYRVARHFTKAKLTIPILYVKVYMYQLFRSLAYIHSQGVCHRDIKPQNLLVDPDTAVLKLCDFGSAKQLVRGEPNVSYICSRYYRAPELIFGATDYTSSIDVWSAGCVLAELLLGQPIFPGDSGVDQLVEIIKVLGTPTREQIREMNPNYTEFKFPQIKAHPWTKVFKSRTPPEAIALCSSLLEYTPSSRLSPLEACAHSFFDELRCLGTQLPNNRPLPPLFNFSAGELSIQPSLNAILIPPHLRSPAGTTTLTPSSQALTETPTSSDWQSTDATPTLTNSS
Chain of Voltage-gated inwardly rectifying potassium channel KCNH2 (Q12809 whole entry): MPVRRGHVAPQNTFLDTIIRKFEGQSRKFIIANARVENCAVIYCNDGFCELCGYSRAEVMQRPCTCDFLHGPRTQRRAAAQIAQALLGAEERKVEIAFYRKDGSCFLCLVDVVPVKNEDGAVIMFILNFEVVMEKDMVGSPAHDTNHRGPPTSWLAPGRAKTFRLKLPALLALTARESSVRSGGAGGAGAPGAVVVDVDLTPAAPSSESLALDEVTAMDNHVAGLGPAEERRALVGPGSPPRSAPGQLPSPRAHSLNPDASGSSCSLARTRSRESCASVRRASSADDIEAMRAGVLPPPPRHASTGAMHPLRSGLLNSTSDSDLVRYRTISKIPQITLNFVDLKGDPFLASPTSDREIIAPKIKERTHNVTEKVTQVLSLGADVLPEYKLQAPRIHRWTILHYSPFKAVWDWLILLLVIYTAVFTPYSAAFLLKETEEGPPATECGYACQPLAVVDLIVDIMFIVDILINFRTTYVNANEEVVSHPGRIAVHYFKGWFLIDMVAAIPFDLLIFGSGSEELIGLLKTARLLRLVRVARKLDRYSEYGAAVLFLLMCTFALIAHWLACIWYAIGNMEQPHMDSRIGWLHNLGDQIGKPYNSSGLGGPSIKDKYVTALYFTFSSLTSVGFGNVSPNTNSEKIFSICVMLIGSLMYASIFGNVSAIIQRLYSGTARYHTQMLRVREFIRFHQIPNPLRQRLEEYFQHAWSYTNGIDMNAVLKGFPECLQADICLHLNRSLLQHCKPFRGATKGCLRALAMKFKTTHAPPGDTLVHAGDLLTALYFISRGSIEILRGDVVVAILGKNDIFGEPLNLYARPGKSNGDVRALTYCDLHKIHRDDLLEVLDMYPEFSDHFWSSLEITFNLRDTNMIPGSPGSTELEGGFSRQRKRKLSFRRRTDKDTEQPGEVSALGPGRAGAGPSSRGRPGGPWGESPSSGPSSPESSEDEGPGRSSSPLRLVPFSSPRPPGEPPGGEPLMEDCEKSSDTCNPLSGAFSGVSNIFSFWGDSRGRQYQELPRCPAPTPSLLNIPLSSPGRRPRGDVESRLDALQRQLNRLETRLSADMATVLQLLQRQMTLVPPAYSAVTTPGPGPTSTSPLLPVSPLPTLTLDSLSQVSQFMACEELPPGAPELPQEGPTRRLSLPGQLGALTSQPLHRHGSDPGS

What does the source list for `COc1cc2c(cc1OC)-c1cc(NCc3cccnc3)nc(=O)n1CC2`?
IC50 (Hexokinase-1 [1]): > 80 µM (inactive); IC50 (Hexokinase HKDC1 [2]): > 80 µM (inactive)

Which results are given for `CCCCOC(=O)C1C(C)=Nc2ncnn2C1c1cccc(OC)c1OC` (stereo not given)?
AC50 [3]: 0.989 µM (active); AC50 [4]: 0.538 µM (active)

Which EC50 [5] does the source give for `CCN1CCN(c2cc3c(cc2F)c(=O)c(C(=O)O)cn3C2CC2)CC1` [ENROFLOXACIN] here?
Its EC50 is 1.22 µM (active).

What about the EC50 (Streptococcus) of the same compound?
Its EC50 is 1.04 µM (active).

And the AC50 (Escherichia coli)?
Its AC50 is 2.46 µM (active).

With `CC(=O)NC1C(=O)N(Cc2ccccc2)c2ccc(C)cc21` (stereo not given) as the compound, how does the IC50 (Hexokinase-1 [6]) read?
Its IC50 is > 80 µM (inactive).

What about the IC50 (Hexokinase HKDC1 [7]) of the same compound?
The IC50 was > 80 µM (inactive).

What does the source list for `Cc1cc2[nH]c3c(c[n+](C)c4ccccc34)c2cc1C`?
IC50 [8]: 0.639 µM (active); EC50 (BJ [9]): 3.9 µM (active); EC50 (BJ [10]): 5.11 µM (inconclusive); EC50 [11]: 0.68 µM (active); CC50 [12]: 2.06 µM (active); EC50 [13]: 6.13 µM (active); EC50 (BJ [14]): 5.36 µM (inconclusive); EC50 [15]: 5.3 µM (active); CC50 [16]: 11.8 µM (active); IC50 [17]: 36.2 µM (active); AC50 [18]: 0.372 µM (active); EC50 (HEK293 [19]): > 59.7 µM (inactive); EC50 (HEK293 [20]): > 59.7 µM (inactive)

For `CCCCCC/C(C=O)=C\c1ccccc1`, which AC50 [21] is on record?
The AC50 was 0.0501 µM (inconclusive).

For `Cc1cc([N+](=O)[O-])nn1CCCC(=O)NC1CCCCC1`, which IC50 (HEK293 [22]) is on record?
Its IC50 is > 67.5 µM (inactive).

What about the IC50 [23] of the same compound?
The IC50 was > 67.5 µM (inactive).
